Data as given in US20230017045A1, “PYRIDINE AND PYRIMIDINE CARBOXYLATE HERBICIDES AND METHODS OF USE THEREOF” (Dow AgroSciences LLC, priority 2017, published 2023).
Like-named read-outs stand apart in the source and are kept apart here.

System: test plant species
Assay: Post-emergent herbicidal activity test (greenhouse, foliar spray, visual growth reduction)
Format: in vivo
Settings: post-emergence, 336 h, 140 g ai/ha
Description: Post-emergent Test: Seeds or nutlets of the desired test plant species were planted in Sun Gro Metro-Mix® 360 planting mixture, which typically has a pH of 6.0 to 6.8 and an organic matter content of about 30 percent, in plastic pots with a surface area of 64 square centimeters. In some aspects, to ensure good germination and healthy plants, a fungicide treatment and/or other chemical or physical treatment was applied. The plants were grown for 7-21 d in a greenhouse with an approximate 15 h photoperiod which was maintained at 23-29° C. during the day and 22-28° C. during the night. Nutrients and water were added on a regular basis and supplemental lighting was provided with overhead metal halide 1000-Watt lamps as necessary. Plants were used for testing when they reached the first or second true leaf stage. A weighed amount, determined by the highest rate to be tested, of each test compound was placed in a 25 mL glass vial and was dissolved in 4 mL of a 97:3 v/v mixture of acetone and DMSO to obtain concentrated stock solutions. […] The concentrated stock solutions obtained were diluted with 20 mL of an aqueous mixture containing acetone, water, isopropyl alcohol, DMSO, […] crop oil concentrate, and X-77 surfactant in a 48.5:39:10:1.5:1.0:0.02 v/v ratio to obtain spray solutions containing the application rate. Compound requirements are based upon a 12 mL application volume at a rate of 187 liters per hectare (L/ha). Formulated compounds were applied to the plant material with an overhead Mandel track sprayer equipped with […] nozzles calibrated to deliver 187 L/ha over an application area of 0.64 square meters at a spray height of 18 inches (43 cm) above the average plant canopy height. Control plants were sprayed in the same manner with the solvent blank. The treated plants and control plants were placed in a greenhouse as described above and watered by subirrigation to prevent wash-off of the test compounds. After 14 d, the condition of the test plants as compared with that of the nontreated and control plants was determined visually and scored on a scale of 0 to 100 percent where 0 corresponds to no injury and 100 corresponds to complete control. In the reporting of the results, Table A: Percent Growth Reduction Conversion Table was used.

[1] = ECHCG: barnyardgrass (Echinochloa crus-galli), 14 days after application, read-out: Visual Growth Reduction (%) 14 Days After Application, ECHCG
[2] = IPOHE: ivy-leaf morning glory (Ipomoea hederacea), 14 days after application, read-out: Visual Growth Reduction (%) 14 Days After Application, IPOHE
[3] = KCHSC: kochia (Bassia scoparia), 14 days after application, read-out: Visual Growth Reduction (%) 14 Days After Application, KCHSC
[4] = ORYSA: rice (Oryza sativa), 14 days after application, read-out: Visual Growth Reduction (%) 14 Days After Application, ORYSA
[5] = SETFA: giant foxtail (Setaria faberi), 14 days after application, read-out: Visual Growth Reduction (%) 14 Days After Application, SETFA
[6] = SORVU: grain sorghum (Sorghum vulgare), 14 days after application, read-out: Visual Growth Reduction (%) 14 Days After Application, SORVU
[7] = STEME: common chickweed (Stellaria media), 14 days after application, read-out: Visual Growth Reduction (%) 14 Days After Application, STEME
[8] = TRZAS: wheat, spring (Triticum aestivum), 14 days after application, read-out: Visual Growth Reduction (%) 14 Days After Application, TRZAS
[9] = blackgrass (Alopecurus myosuroides), 14 Days After Application, read-out: Visual Growth Reduction (%) ALOMY
[10] = canada thistle (Cirsium arvense), 14 Days After Application, read-out: Visual Growth Reduction (%) CIRAR
[11] = crabgrass (Digitaria sanguinalis), 14 Days After Application, read-out: Visual Growth Reduction (%) DIGSA
[12] = lambsquarters (Chenopodium album), 14 Days After Application, read-out: Visual Growth Reduction (%) CHEAL
[13] = redroot pigweed (Amaranthus retroflexus), 14 Days After Application, read-out: Visual Growth Reduction (%) AMARE
[14] = wild oat (Avena fatua), 14 Days After Application, read-out: Visual Growth Reduction (%) AVEFA
[15] = yellow nutsedge (Cyperus esculentus), 14 Days After Application, read-out: Visual Growth Reduction (%) CYPES
[16] = ALOMY: blackgrass (Alopecurus myosuroides), 14 days after application, read-out: Visual Growth Reduction (%) 14 Days After Application, ALOMY
[17] = AMARE: redroot pigweed (Amaranthus retroflexus), 14 days after application, read-out: Visual Growth Reduction (%) 14 Days After Application, AMARE
[18] = AVEFA: wild oat (Avena fatua), 14 days after application, read-out: Visual Growth Reduction (%) 14 Days After Application, AVEFA
[19] = CHEAL: lambsquarters (Chenopodium album), 14 days after application, read-out: Visual Growth Reduction (%) 14 Days After Application, CHEAL
[20] = CIRAR: canada thistle (Cirsium arvense), 14 days after application, read-out: Visual Growth Reduction (%) 14 Days After Application, CIRAR
[21] = CYPES: yellow nutsedge (Cyperus esculentus), 14 days after application, read-out: Visual Growth Reduction (%) 14 Days After Application, CYPES
[22] = DIGSA: crabgrass (Digitaria sanguinalis), 14 days after application, read-out: Visual Growth Reduction (%) 14 Days After Application, DIGSA

Structure (SMILES) | pest or weed control at 140 g/ha [1] [%] | pest or weed control at 140 g/ha [2] [%] | pest or weed control at 140 g/ha [3] [%] | pest or weed control at 140 g/ha [4] [%] | pest or weed control at 140 g/ha [5] [%] | pest or weed control at 140 g/ha [6] [%] | pest or weed control at 140 g/ha [7] [%] | pest or weed control at 140 g/ha [8] [%] | pest or weed control at 140 g/ha [9] [%] | pest or weed control at 140 g/ha [10] [%] | pest or weed control at 140 g/ha [11] [%] | pest or weed control at 140 g/ha [12] [%] | pest or weed control at 140 g/ha [13] [%] | pest or weed control at 140 g/ha [14] [%] | pest or weed control at 140 g/ha [15] [%] | pest or weed control at 140 g/ha [16] [%] | pest or weed control at 140 g/ha [17] [%] | pest or weed control at 140 g/ha [18] [%] | pest or weed control at 140 g/ha [19] [%] | pest or weed control at 140 g/ha [20] [%] | also measured
O=C(O)c1nc(-c2cc(F)c(C(F)(F)F)cc2Cl)c(F)cc1Cl [F254, 3-Chloro-6-(2-chloro-5-fluoro-4-(trifluoromethyl)phenyl)-5-fluoropicolinic acid] | 95 to 100 | 95 to 100 | 85 to 94 | 75 to 84 | 95 to 100 | 95 to 100 | 95 to 100 | 95 to 100 | 85 to 94 | 95 to 100 | 95 to 100 | 95 to 100 | 95 to 100 | 95 to 100 | 60 to 74 | – | – | – | – | – | –
COC(=O)c1nc(-c2cc(C#N)c(C(F)(F)F)cc2Cl)ccc1Cl [F326, Methyl 3-chloro-6-(2-chloro-5-cyano-4-(trifluoromethyl)phenyl)picolinate] | 75 to 84 | 0 to 29 | 0 to 29 | 0 to 29 | 30 to 44 | 95 to 100 | 0 to 29 | 0 to 29 | 0 to 29 | 45 to 59 | 75 to 84 | 60 to 74 | 0 to 29 | 0 to 29 | 0 to 29 | – | – | – | – | – | –
COC(=O)c1nc(-c2ccc3ccsc3c2F)c(Cl)cc1Cl [F330, Methyl 3,5-dichloro-6-(7-fluorobenzo[b]thiophen-6-yl)picolinate] | 0 to 29 | 0 to 29 | 0 to 29 | 0 to 29 | 0 to 29 | 0 to 29 | 0 to 29 | 0 to 29 | 0 to 29 | – | 0 to 29 | 0 to 29 | 0 to 29 | 0 to 29 | 30 to 44 | – | – | – | – | – | –
C#Cc1ccc(-c2ccc(C(F)(F)F)cc2Cl)nc1C(=O)OC [F31, Methyl 6-(2-chloro-4-(trifluoromethyl)phenyl)-3-ethynylpicolinate] | 0 to 29 | 60 to 74 | 0 to 29 | 0 to 29 | 0 to 29 | 45 to 59 | 0 to 29 | 0 to 29 | – | – | – | – | – | – | – | 0 to 29 | 45 to 59 | 0 to 29 | 0 to 29 | 0 to 29 | pest or weed control at 140 g/ha [21]: 0 to 29%; pest or weed control at 140 g/ha [22]: 0 to 29%
COC(=O)c1nc(-c2ccc(Cl)cc2)c(N)cc1Cl [F72, methyl 5-amino-3-chloro-6-(4-chlorophenyl)picolinate] | 0 to 29 | – | – | 0 to 29 | 0 to 29 | 0 to 29 | 0 to 29 | 0 to 29 | – | – | – | – | – | – | – | 0 to 29 | 0 to 29 | 0 to 29 | 0 to 29 | 0 to 29 | pest or weed control at 140 g/ha [21]: 0 to 29%; pest or weed control at 140 g/ha [22]: 0 to 29%
